The values below are quoted from earlier work in patent US11044905B2, “Tablet with an antimycotic agent, medical device and method for preserving harvested corneas” (ALCHILIFE S.R.L., priority 2018, dated 2021).

The conditions of this data set: organ culture preservation, 31° C.

On to `C[C@@H]1[C@H](O)[C@@H](C)/C=C/C=C/C=C/C=C/C=C/C=C/C=C/[C@H](O[C@@H]2O[C@H](C)[C@@H](O)[C@H](N)[C@@H]2O)C[C@@H]2O[C@](O)(C[C@@H](O)C[C@@H](O)[C@H](O)CC[C@@H](O)C[C@@H](O)CC(=O)O[C@H]1C)C[C@H](O)[C@H]2C(=O)O` [Amphotericin B], for which the “period of effective protection under conditions of use” value is given as not above 14 days.
